Starred links: 1 amine or outer side, 2 acyl side, 3 side chain; linkers in the order of their positions; H or OH if unused. Non-standard residues stand in square brackets, D forms with d. Residues, ends and D or L forms follow the SMILES beside them. Groups on a side chain read outwards from the residue. *: point of attachment. X1 = CC(C)(CCNC(=N)N)[C@H](N[*:1])C(=O)[*:2]; γGlu = O=C(O)[C@H](CCC(=O)[*:2])N[*:1]; Stearoyl = CCCCCCCCCCCCCCCCCC(=O)*; Palmitoyl = CCCCCCCCCCCCCCCC(=O)*; αMeF = C[C@](N)(Cc1ccccc1)C(=O)O; PEG2 = NCCOCCOCCC(=O)O; Aib = CC(C)(N)C(=O)O
target: human GLP-1 receptor (hGLP-1R) (Homo sapiens, UniProt P43220); test: cAMP production (HTRF) in CHO cells expressing hGLP-1R; format: cell-based; parameters: expressed in transfected cells; conditions: Table 6; % GLP-1R activity relative to GLP-1 / % GlucR activity relative to glucagon
Description: Cells were re-suspended in assay buffer at a batch-dependent optimized concentration (typically hGLP-1R cells at 1×10^5 cells/mL, hGCGR cells at 2×10^5 cells/mL).
Cells were added to the assay plate using a multidrop dispenser and incubated at room temperature for 30 minutes before measuring the cAMP level using a cAMP dynamic 2 homogeneous time resolved Fluorescence (HTRF) kit (Cisbio Bioassays #62AM4PEJ) following the two-step protocol as per manufacturer's recommendations. In brief, anti-cAMP cryptate (donor fluorophore) and cAMP-d2 (acceptor fluorophore) were made up separately by diluting each 1 in 20 in conjugate and lysis buffer provided in the kit. Anti-CAMP cryptate was added to all wells of the assay plate, followed by cAMP-d2 added to all wells except non-specific binding (NSB) wells (to which conjugate and lysis buffer was added).
Data was transformed to % Delta F as described in the manufacturer's guidelines and analyzed by 4-parameter logistic fit to determine EC50 values.

Sequence of human GLP-1 receptor (hGLP-1R) (P43220 24-463): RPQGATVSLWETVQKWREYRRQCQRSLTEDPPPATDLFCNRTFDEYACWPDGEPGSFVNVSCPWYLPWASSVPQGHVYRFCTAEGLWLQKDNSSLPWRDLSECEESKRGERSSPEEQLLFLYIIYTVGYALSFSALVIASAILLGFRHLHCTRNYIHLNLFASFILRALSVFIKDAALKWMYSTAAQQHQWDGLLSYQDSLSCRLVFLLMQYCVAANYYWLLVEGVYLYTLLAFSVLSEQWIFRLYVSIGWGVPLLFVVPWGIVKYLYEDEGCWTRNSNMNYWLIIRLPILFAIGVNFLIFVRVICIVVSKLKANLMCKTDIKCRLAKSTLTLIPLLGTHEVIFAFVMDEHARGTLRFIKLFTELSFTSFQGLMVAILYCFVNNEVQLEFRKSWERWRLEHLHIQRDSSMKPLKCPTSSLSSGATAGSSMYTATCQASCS

| SMILES | % Relative Potency Ratio |
| --- | --- |
| CCCCCCCCCCCCCCCCCC(=O)N[C@@H](CCC(=O)N[C@@H](CCC(=O)NCCOCCOCCC(=O)NCCOCCOCCC(=O)NCCCC[C@H](NC(=O)[C@H](CO)NC(=O)[C@H](CC(=O)O)NC(=O)[C@H](CC(C)C)NC(=O)[C@](C)(Cc1ccccc1)NC(=O)[C@H](CCCCN)NC(=O)[C@H](CO)NC(=O)[C@@H](NC(=O)[C@H](CC(=O)O)NC(=O)[C@H](CO)NC(=O)[C@@H](NC(=O)[C@](C)(Cc1ccccc1)NC(=O)[C@H](CO)NC(=O)CNC(=O)[C@H](CCC(N)=O)NC(=O)C(C)(C)NC(=O)[C@@H](N)Cc1c[nH]cn1)[C@@H](C)O)C(C)C)C(=O)N[C@H](C(=O)N[C@@H](C)C(=O)N[C@@H](CCC(N)=O)C(=O)N[C@@H](CC(=O)O)C(=O)N[C@@](C)(Cc1ccccc1)C(=O)N[C@H](C(=O)N[C@@H](CCC(=O)O)C(=O)NC(C)(C)C(=O)N[C@@H](CC(C)C)C(=O)N[C@@H](CCC(=O)O)C(=O)N[C@@H](C)C(=O)NCC(=O)NCC(N)=O)C(C)C)C(C)(C)CCNC(=N)N)C(=O)O)C(=O)O [Peptide 74] (H-H[Aib]QGS[αMeF]TSDVSK[αMeF]LDSK([PEG2-PEG2-γGlu-γGlu-Stearoyl])[X1]AQD[αMeF]VE[Aib]LEAGG-NH2; N-terminus assumed) | 11.8 |
| CCCCCCCCCCCCCCCCCC(=O)N[C@@H](CCC(=O)N[C@@H](CCC(=O)NCCOCCOCCC(=O)NCCOCCOCCC(=O)NCCCC[C@H](NC(=O)[C@H](CO)NC(=O)[C@H](CC(=O)O)NC(=O)[C@H](CC(C)C)NC(=O)[C@](C)(Cc1ccccc1)NC(=O)[C@H](CCCCN)NC(=O)[C@H](CO)NC(=O)[C@@H](NC(=O)[C@H](CC(=O)O)NC(=O)[C@H](CO)NC(=O)[C@@H](NC(=O)[C@](C)(Cc1ccccc1)NC(=O)[C@H](CO)NC(=O)CNC(=O)[C@H](CCC(N)=O)NC(=O)[C@H](CO)NC(=O)[C@@H](N)Cc1c[nH]cn1)[C@@H](C)O)C(C)C)C(=O)N[C@@H](C)C(=O)N[C@@H](C)C(=O)N[C@@H](CCC(N)=O)C(=O)N[C@@H](CC(=O)O)C(=O)N[C@@](C)(Cc1ccccc1)C(=O)N[C@H](C(=O)N[C@@H](CCC(N)=O)C(=O)NC(C)(C)C(=O)N[C@H](C(=O)N[C@@H](C)C(=O)N[C@@H](CC(N)=O)C(=O)N[C@H](C(N)=O)[C@@H](C)O)[C@@H](C)CC)C(C)C)C(=O)O)C(=O)O [Peptide 82] (H-HSQGS[αMeF]TSDVSK[αMeF]LDSK([PEG2-PEG2-γGlu-γGlu-Stearoyl])AAQD[αMeF]VQ[Aib]IANT-NH2; N-terminus assumed) | 18.3 |
| CCCCCCCCCCCCCCCC(=O)N[C@@H](CCC(=O)N[C@@H](CCC(=O)NCCOCCOCCC(=O)NCCOCCOCCC(=O)NCCCC[C@H](NC(=O)[C@H](CO)NC(=O)[C@H](CC(=O)O)NC(=O)[C@H](CC(C)C)NC(=O)[C@](C)(Cc1ccccc1)NC(=O)[C@H](CCCCN)NC(=O)[C@H](CO)NC(=O)[C@@H](NC(=O)[C@H](CC(=O)O)NC(=O)[C@H](CO)NC(=O)[C@@H](NC(=O)[C@](C)(Cc1ccccc1)NC(=O)[C@H](CO)NC(=O)CNC(=O)[C@H](CCC(N)=O)NC(=O)[C@H](CO)NC(=O)[C@@H](N)Cc1c[nH]cn1)[C@@H](C)O)C(C)C)C(=O)N[C@@H](C)C(=O)N[C@@H](C)C(=O)N[C@@H](CCC(N)=O)C(=O)N[C@@H](CC(=O)O)C(=O)N[C@@](C)(Cc1ccccc1)C(=O)N[C@H](C(=O)N[C@@H](CCC(N)=O)C(=O)N[C@H](C(=O)N[C@H](C(=O)N[C@@H](C)C(=O)N[C@@H](CC(N)=O)C(N)=O)[C@@H](C)CC)[C@@H](C)CC)C(C)C)C(=O)O)C(=O)O [Peptide 89] (H-HSQGS[αMeF]TSDVSK[αMeF]LDSK([PEG2-PEG2-γGlu-γGlu-Palmitoyl])AAQD[αMeF]VQIIAN-NH2; N-terminus assumed) | 8.0 |

Source: patent publication US20250353891A1 (MEDIMMUNE LIMITED, priority 2022, published 2025)
